According to patent US4985428A, “Isoxazoles with nootropic activity” (Zambon Group S.p.A., priority 1987, dated 1991):

Tested on: electroshock (ECS) amnesia in rat
Assay: electroshock (ECS) amnesia test in rat
Assay type: in vivo
Details: ip, male rats, intraperitoneal, 30 minutes before training session, dose improving retention time by 50% of Δt vs ECS control, read-out: ED50 i.p.
Method: The compounds of formula I are active on central nervous system and they can be used in pharmaceutical field as nootropics. By the electroshock (ECS) amnesia test, described in example 8, in rat the pharmacological activity of the compounds object of the present invention was evaluated in comparison with the activity of Piracetam and Aniracetam. Pharmacodynamic evaluation: electroshock (ECS) amnesia test in rat Male rats weighing 130-150 g and fasting for at least 12 hours before the beginning of the test were used. The test consisted in two experiments with a resting interval of 24 hours between them. First experiment: training session The animals were trained to associate the passage from a light partition to a dark one, in a suitable box, with a noxious stimulation that is an electric stimulation through an electrified grid (foot-shock: 1 mA for 10 seconds). Second experiment: retention session The ability of the animals to remember was evaluated as the time utilized to repeat the passage through the partitions (retention time). Evaluation of the retention time in control groups of animals The test was carried out first on two groups of animals as control. […] Fixing 60 seconds as time-limit for performing the second experiment, the average time (retention time) utilized for the passage was 54 seconds for the control and 32 seconds for the ECS control. Evaluation of the retention time in groups of treated animals Groups of 20 rats underwent the training session, the treatment for inducing amnesia and the retention session after administration of the compounds object of the present invention and of the reference compounds, Piracetam and Aniracetam. The administration was carried out 30 minutes before the training session in case of intraperitoneal administration (i.p.) and 60 minutes before in case of administration by oral route. At least three doses each compound and each administration route were tested. The difference between the retention time of the control and the retention time of the ECS control was considered as reference (Δt) and it was fixed, as percentage, equal to 100. In the groups of animals which were treated and underwent ECS the activity against amnesia of the compounds object of the present invention was expressed as ED50 that is as the dose of compound able to give an improvement of the retention time equal to 50% of the reference interval (Δt) in comparison with the ECS control.

| SMILES | ED50 [µmol/kg] |
| --- | --- |
| COc1cc(C(=O)NCCCC(=O)O)on1 [Compound 3, N-(3-methoxy-5-isoxazolecarbonyl)-4-aminobutyric acid] | 276 |
| NC(=O)CN1CCCC1=O [Piracetam, 2-pyrrolidinoneacetamide, reference compound] | 329 |
| O=C(O)CCCNC(=O)c1cc(Br)no1 [Compound 1, N-(3-bromo-5-isoxazolecarbonyl)-4-aminobutyric acid] | 102 |
| Cc1cc(C(=O)NCCCC(=O)O)on1 [Compound 4, N-(3-methyl-5-isoxazolecarbonyl)-4-aminobutyric acid] | 202 |
| CCOC(=O)CNC(=O)CCCNC(=O)c1cc(Br)no1 [Compound 12, Ethyl N-[N-(3-bromo-5-isoxazolecarbonyl)-4-aminobutyroyl]glicinate] | 171 |
| O=C(O)CCCNC(=O)c1cc(Cl)no1 [Compound 2, N-(3-chloro-5-isoxazolecarbonyl)-4-aminobutyric acid] | 160 |
| O=C(NCCCC(=O)N1CCCC1)c1cc(Br)no1 [Compound 8, N-[4-oxo-4-(1-pyrrolidinyl)butyl]-3-bromo-5-isoxazolecarboxamide] | 25 |
| COc1ccc(C(=O)N2CCCC2=O)cc1 [Aniracetam, 1-(4-methoxy-benzoyl)-2-pyrrolidinone, reference compound] | 353 |

Same assay, conditions: male rats, oral route, 60 minutes before training session, dose improving retention time by 50% of Δt vs ECS control, read-out: ED50 os

| SMILES | ED50 [µmol/kg] |
| --- | --- |
| COc1cc(C(=O)NCCCC(=O)O)on1 [Compound 3, N-(3-methoxy-5-isoxazolecarbonyl)-4-aminobutyric acid] | 868 |
| NC(=O)CN1CCCC1=O [Piracetam, 2-pyrrolidinoneacetamide, reference compound] | 1550 |
| O=C(O)CCCNC(=O)c1cc(Br)no1 [Compound 1, N-(3-bromo-5-isoxazolecarbonyl)-4-aminobutyric acid] | 290 |
| Cc1cc(C(=O)NCCCC(=O)O)on1 [Compound 4, N-(3-methyl-5-isoxazolecarbonyl)-4-aminobutyric acid] | 383 |
| CCOC(=O)CNC(=O)CCCNC(=O)c1cc(Br)no1 [Compound 12, Ethyl N-[N-(3-bromo-5-isoxazolecarbonyl)-4-aminobutyroyl]glicinate] | 1000 |
| O=C(O)CCCNC(=O)c1cc(Cl)no1 [Compound 2, N-(3-chloro-5-isoxazolecarbonyl)-4-aminobutyric acid] | 260 |
| O=C(NCCCC(=O)N1CCCC1=O)c1cc(Br)no1 [Compound 21, 1-[N-(3-bromo-5-isoxazolecarbonyl)-4-aminobutyroyl]-2-pyrrolidinone] | 254 |
| O=C(NCCCC(=O)N1CCCC1)c1cc(Br)no1 [Compound 8, N-[4-oxo-4-(1-pyrrolidinyl)butyl]-3-bromo-5-isoxazolecarboxamide] | 80 |
| O=C(O)CCCNC(=O)CCCNC(=O)c1cc(Br)no1 [Compound 19, N-[N-(3-bromo-5-isoxazolecarbonyl)-4-aminobutyroyl]-4-aminobutyric acid] | 261 |
| COc1ccc(C(=O)N2CCCC2=O)cc1 [Aniracetam, 1-(4-methoxy-benzoyl)-2-pyrrolidinone, reference compound] | 1110 |
